Like-named read-outs stand apart in the source and are kept apart here.
Assays:
[1] = tested on: 3-hydroxylase (5-epi-aristolochene to 1-deoxycapsidiol); details: cited from earlier work
[2] = tested on: 5-epi-aristolochene hydroxylase (5EAH); experiment: In vivo 5-epi-aristolochene hydroxylase assay in elicitor-treated tobacco cell suspension cultures; details: Nicotiana tabacum, read-out: inhibition of apparent activity of 5EAH
Method: (§1) The hexane solvent was removed under a gentle stream of N2 gas, and the dried residue was re-dissolved in acetone. […] Detection and quantification of capsidiol in the extracellular culture media was performed as reported previously (Chappell et al., Phytochemistry 26:2259-2260, 1987), and the amount of radioactivity incorporated into capsidiol was determined. For these determinations, samples were separated by TLC, and the zones corresponding to capsidiol were scraped from the plate for scintillation counting.
(§2) Inhibition studies were performed by the addition of the P450 inhibitors ancymidol (Coolbaugh et al., Plant Physiol. 62:571-576, 1978; Hoshino et al., Phytochemistry 38:609-613, 1995) and ketoconazole (Hoshino et al., Phytochemistry 38:609-613, 1995; Rademacher, Annu. Rev. Plant Physiol. Plant Mol. Biol. 51:501-531, 2000) directly to the cell cultures or enzyme assay mix. […] After a further 3 hour incubation period, the cells and media were collected. The amount of radioactivity incorporated into extracellular capsidiol was determined as described above. To evaluate secondary effects of these inhibitors, the level of inducible sesquiterpene cyclase activity in the collected cells was determined according to Vogeli et al. (Plant Physiol. 93:182-187, 1990), as well as in vitro assays with purified recombinant EAS (Back et al., Arch. Biochem. Biophys. 315:527-532, 1994) incubated with the indicated concentrations of ancymidol and ketoconazole.

[3] = tested on: 5-epi-aristolochene hydroxylase (5EAH)
Method: as §1, §2

[4] = tested on: induction of EAS in elicitor-treated cell cultures; experiment: Inducible sesquiterpene cyclase (EAS) activity in extracts of elicitor-treated cells; type: cell-based, Nicotiana tabacum; details: 12 h with cellulase
[5] = biological target: T1, 5-epi-aristolochene synthase (EAS) (Nicotiana tabacum, UniProt Q40577); experiment: In vitro activity of purified recombinant EAS with inhibitors; type: biochemical
T1 construct: made in house
T1 sequence (Q40577 1-548): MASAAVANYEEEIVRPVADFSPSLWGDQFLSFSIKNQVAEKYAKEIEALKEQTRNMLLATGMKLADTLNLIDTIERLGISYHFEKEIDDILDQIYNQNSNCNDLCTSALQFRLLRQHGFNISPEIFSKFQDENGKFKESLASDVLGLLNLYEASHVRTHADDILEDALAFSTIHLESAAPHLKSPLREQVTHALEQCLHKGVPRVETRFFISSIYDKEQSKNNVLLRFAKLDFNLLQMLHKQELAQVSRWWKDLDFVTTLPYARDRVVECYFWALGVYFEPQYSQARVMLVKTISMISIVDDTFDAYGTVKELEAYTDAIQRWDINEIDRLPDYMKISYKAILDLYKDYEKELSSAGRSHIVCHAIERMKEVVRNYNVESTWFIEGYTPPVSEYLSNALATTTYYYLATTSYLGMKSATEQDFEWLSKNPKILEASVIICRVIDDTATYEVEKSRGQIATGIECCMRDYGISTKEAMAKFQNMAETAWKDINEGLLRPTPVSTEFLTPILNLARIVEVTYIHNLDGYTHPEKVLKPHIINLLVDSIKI
Method: The in vitro activity of a purified EAS preparation (Back and Chappell, J. Biol. Chem. 270:7375-7381, 1995) was also measured at the indicated inhibitor concentrations as an additional test for non-specific effects of these inhibitors (circles).

[6] = tested on: CYP71D20; details: 20 to 50 μM substrate, 2 mM NADPH, 1 mg/mL microsomal protein, 30° C.
Method: Reactions were carried out in 100 mM Tris-HCl, pH 7.5, to which microsomal protein was added to a final concentration of 1 mg/mL. Reactions were initiated by the addition of 2 mM NADPH. […] After incubations for variable lengths of time at 30° C., the reactions were extracted with two volumes of ethyl acetate. […] GC analysis was routinely performed with an HP5890 GC equipped with a Hewlett-Packard HP-5 capillary column (30 m×0.25 mm, 0.25 μm phase thickness) and FID as described previously (Rising et al., J. Am. Chem. Soc. 122:1861-1866, 2000). GC-MS analysis was performed at the University of Kentucky Mass Spectrometry Facility using a Varian 3400 gas chromatograph and a Finnigan INCOS 50 quadrupole mass selective detector. The GC was equipped with a J&W DB-5 ms capillary column (15 m×0.25 mm, 0.25 μm phase thickness) and run with He as the carrier gas (10 psi.). Splitless injections were done at an injection port temperature of 280° C. The column temperature was maintained at 40° C. for 1 minute and then increased to 280° C. at 10° C. per minute. Following separation by the GC column, samples were introduced directly into the electron impact ionization source. Mass spectra were acquired at 70 eV, scanning from 40-440 Da in 1 second.

[7] = microsomes incubated with 5-epi-aristolochene
[8] = concentrations as high as 100 μM

Structure (SMILES): [C-]#[O+] [carbon monoxide]
- effect on 1-deoxycapsidiol accumulation in vitro [1, 7]: arrested

Structure (SMILES): COc1ccc(C(O)(c2cncnc2)C2CC2)cc1 (stereo not shown) [ancymidol]
- inhibition at 75 µM [2]: > 80%
- effect on 1-deoxycapsidiol accumulation in vitro [1, 7]: arrested
- inhibition ([3]; 25 µM): ~50%
- effect on induction of EAS in elicitor-treated cell cultures [4, 8]: neither the in vitro activity of recombinant EAS nor the induction of EAS in the elicitor-treated cell cultures was significantly affected
- effect on in vitro activity of recombinant EAS [5, 8]: neither the in vitro activity of recombinant EAS nor the induction of EAS in the elicitor-treated cell cultures was significantly affected

Structure (SMILES): C=C(C)[C@@H]1CC=C2CC[C@@H](O)[C@@H](C)[C@@]2(C)C1 [1-deoxycapsidiol]
- metabolism by CYP71D20 microsomes (GC, GC-MS of products) [6]: metabolized to only one product with the same retention time as capsidiol

Structure (SMILES): C=C(C)[C@@H]1CC=C2CCC[C@@H](C)[C@@]2(C)C1 [5-epi-aristolochene]
- metabolism by CYP71D20 microsomes (GC, GC-MS of products) [6]: metabolized to only one product with the same retention time as capsidiol

Structure (SMILES): CC(=O)N1CCN(c2ccc(OCC3COC(Cn4ccnc4)(c4ccc(Cl)cc4Cl)O3)cc2)CC1 (stereo not shown) [ketoconazole]
- effect on 1-deoxycapsidiol accumulation in vitro [1]: arrested
- inhibition ([3]; 25 µM): ~50%
- inhibition ([3]; 100 µM): 95%
- concentration at which inducibility of cyclase activity in elicitor-treated cell extracts was inhibited [4]: above 50 μM
- effect on in vitro activity of EAS ([5]; indicated inhibitor concentrations (FIG. 3B)): does not appear to affect

Source: US10184118B2, “Cytochrome P450S and uses thereof” (University of Kentucky Research Foundation, priority 2001, dated 2019)
